The values below are quoted from earlier work in publication PMC10485003, “Antibiotic hyper-resistance in a class I aminoacyl-tRNA synthetase with altered active site signature motif” (Nature Communications, 2023).

One data set relates to E. coli IleRS1. Further details: method as in earlier work. Particulars: activation step, absence of tRNA; cited from earlier work.
In the next data set the target is ScIleRS2. The note with it: activation step, absence of tRNA; cited from earlier work.

As to `C/C(=C\C(=O)OCCCCCCCCC(=O)O)C[C@@H]1OC[C@H](C[C@@H]2O[C@H]2[C@@H](C)[C@H](C)O)[C@@H](O)[C@H]1O` [mupirocin], the inhibition constant (Ki) (usually the dissociation constant of the complex between target and ligand, obtained from inhibition or displacement) with E. coli IleRS1 was 0.006 µM; at ScIleRS2, 8.6 µM.
